For one test, the system named is H^+,K^+-ATPase. Put plainly: H+,K+-ATPase-mediated H+ secretion (JH) in intercalated cells of microperfused inner cortical collecting ducts from DOCP-treated mice (BCECF-AM). It counts as in vivo, mouse. How it is done: One likely mechanism for mineralocorticoid-induced changes in acid-base homeostasis was stimulation of renal H^+,K^+-ATPase activity in response to mineralocorticoid-induced K^+ deficits. Therefore, H^+,K^+-ATPase activity was assessed in inner cortical collecting ducts from control and DOCP-treated mice. Individual intercalated cells from microperfused collecting ducts were loaded with the pH sensitive fluorescent dye, BCECF-AM. The addition of inhibitors of the Na^+/H^+ exchanger and the H^+-ATPase allowed for the measurement of H^+,K^+-ATPase-mediated H^+ secretion (JH) in response to an acute intracellular acid load (NH4Cl). The overall rate of H^+,K^+-ATPase-mediated JH in intercalated cells from control mice was quite slow (˜15H^+/min) (FIG. 1).
Additional experiments were conducted to identify which intercalated cell subtype was responsible for the DOCP-induced increase in H^+,K^+-ATPase mediated JH. Again, the rate of H^+,K^+-ATPase-mediated JH was measured in intercalated cells of inner cortical collecting ducts from control and DOCP-treated mice. At the end of the experiment, A- and B-type ICs were differentiated by peritubular Cl^− removal and return as has been described previously^12,13 The characteristic inverse responses of A- and B-type intercalated cells to Cl^− removal and return were observed (Table 2). […]
Inner cortical collecting ducts were hand dissected at 4° C., transferred to a mounting chamber and perfused as described previously.^25 The ratiometric, pH sensitive dye, BCECF-AM (15 μM, Invitrogen) was added to the luminal perfusate for 10 minutes and fluorescence measurements were performed after dye de-esterification. […] Recovery rates were calculated from the linear portion of the pH, recovery phase starting with the lowest pH, achieved. The intrinsic buffering capacity was calculated from the formula βi=ΔHi/ΔpHi where ΔHi is the change in the calculated [NH4]i and ΔpHi the change in pHi during the acid loaded phase. Acid secretion rates (JH) were calculated from the formula JH=βi*ΔpH, (U/min) and expressed as [H^+]/min. […]

Test [1] is described as follows: Radiotelemetry (blood pressure, heart rate, locomotor activity) in WT and HKα1,2−/− mice, control and DOCP. It counts as in vivo, mouse. As to conditions: for Mean arterial pressures / Heart rate / Locomotor activity: DOCP. From the text: Age matched, male C56BL/6 WT and C56BL/6 HKα1,2^−/− mice were anesthetized using 5% isoflurane, and radiotelemetry transmitters (PA-C10, Data Sciences, St. Paul, Minn.) were implanted under sterile conditions (1-3% continuous isoflurane). The catheter was placed in the left carotid artery and the housing of the transmitter was implanted subcutaneously on the animal's right flank. Mice were allowed to recover for a period of at least 14 days prior to recordings. These mice were not subject to metabolic cage experiments or blood and tissue collections. Mice were fed a normal lab chow (Teklad 2018, 0.2% Na and 0.5% K) and allowed free access to water. DOCP treated mice received an intramuscular injection of 1.7 mg DOCP (Percorten V, Novartis Pharmaceuticals) and were fed the normal gel diet described previously supplemented with NaCl to equal 0.4% Na^+ ad libitum for 8 days with free access to water. Radiotelemetry recordings were performed one week before and one week after DOCP treatment. At the time of the control recording, mice ranged in age from 15-25 weeks. Recording were made for 2 minutes at the beginning of each hour or for 2 minutes every 10 minutes for 48 hours. Moving averages were calculated for each hour. Comparisons of systolic BP, HR, and LA were made for the main effects 1) DOCP treated versus untreated and 2) WT versus HKα1,2^−/− mice. Differences between the daytime (06:00-17:59) and nighttime (18:00-05:59) values for these parameters were also compared.
Radiotelemetry was performed in order to assess genotypic differences in systolic BP, HR and LM during normal and DOCP treatment. Example 48 hr tracings of systolic BP, HR, and LA comparing WT and HKα1,2^−/− during normal and DOCP treatment are shown in FIG. 13.

For `CC(C)(C)C(=O)OCC(=O)[C@H]1CC[C@H]2[C@@H]3CCC4=CC(=O)CC[C@]4(C)[C@H]3CC[C@]12C` [DOCP, desoxycorticosterone pivalate], the “increase in H+,K+-ATPase-mediated JH” value is recorded as “approximately 60%” in the test with H^+,K^+-ATPase (A-type intercalated cells, DOCP-treated versus control mice) and “greater than 60%” in the test with H^+,K^+-ATPase (intercalated cells from DOCP-treated mice (eight days) versus control). Also, the “rate of H+,K+-ATPase-mediated JH” value in the test with H^+,K^+-ATPase (B type ICs, DOCP-treated versus control mice) is listed as “not affected”. Also, the “effect on daytime or nighttime systolic BP” value in test [1] (HKα1,2−/− mice) is “failed to significantly increase”. The Mean arterial pressures was 112.7 ± 1.8 mmHg in test [1] (HKα1,2−/− mice, Daytime (Inactive)); 118.5 ± 2.4 mmHg in test [1] (HKα1,2−/− mice, Nighttime (Active)); 112.9 ± 2.3 mmHg in test [1] (WT mice, Daytime (Inactive)); 122.5 ± 2.9 mmHg in test [1] (WT mice, Nighttime (Active)). Besides, the Heart rate is 554.8 ± 21.4 beats/min in test [1] (HKα1,2−/− mice, Daytime); 580.5 ± 20.1 beats/min in test [1] (HKα1,2−/− mice, Nighttime); 496.7 ± 17.5 beats/min in test [1] (WT mice, Daytime); 533.5 ± 17.2 beats/min in test [1] (WT mice, Nighttime). For the same molecule, the Locomotor activity was found to be 3.267 ± 0.603 in test [1] (HKα1,2−/− mice, Daytime); 5.410 ± 1.078 in test [1] (HKα1,2−/− mice, Nighttime); 3.913 ± 0.407 in test [1] (WT mice, Daytime); 7.036 ± 0.735 in test [1] (WT mice, Nighttime). Also, the “effect on locomotor activity (LA)” value in test [1] (WT and HKα1,2−/− mice) is reported as “did not significantly affect”. Also, in test [1] (WT mice), the “effect on systolic BP during the day and night” value is given as “significantly increased”. Also, the “effect on HR during the night” value in test [1] (WT mice, DOCP treatment) is on record as “significant decrease”.
